Assay results taken from patent publication US20260174769A1, “MACROCYCLIC COMPOUNDS AND METHODS OF USE” (AMGEN INC., priority 2022, published 2026).
Structures can show the parent of a compound that is named as a salt. Where two headings read alike, the source gives them in different places.

How the values were obtained:
[1] = test system: Phosphorylation of ERK1/2 in AsPC-1 cells; assay: Phospho-ERK1/2 MSD Assay; type: cell-based, human; conditions: AsPC-1 cells, 2 h compound treatment, read-out: 2 h p-ERK (AsPC-1 cells), IC50
Procedure: Sixteen hours prior to compound treatment, AsPC-1 cells were seeded in 96-well cell culture plates at a density of 25,000 cells/well and incubated at 37° C., 5% CO2. A compound dose-response titration was diluted in growth media, added to appropriate wells of a cell culture plate, and then incubated at 37° C., 5% CO2 for 2 hours. […] Phosphorylation of ERK1/2 in compound-treated lysates was assayed using Phospho-ERK 1/2 Whole Cell Lysate kits (Meso Scale Discovery K151DWD) according to the manufacturer's protocol. Assay plates were read on a Meso Scale Discovery Sector Imager 6000, and data were analyzed using a 4-parameter logistic model to calculate IC50 values.

[2] = target: His-tagged KRAS G12D protein (Homo sapiens, UniProt P01116, G12D); assay: KRAS G12D TR-FRET Assay; type: binding
Sequence of His-tagged KRAS G12D protein (P01116 1-188 isoform P01116-2 G12D): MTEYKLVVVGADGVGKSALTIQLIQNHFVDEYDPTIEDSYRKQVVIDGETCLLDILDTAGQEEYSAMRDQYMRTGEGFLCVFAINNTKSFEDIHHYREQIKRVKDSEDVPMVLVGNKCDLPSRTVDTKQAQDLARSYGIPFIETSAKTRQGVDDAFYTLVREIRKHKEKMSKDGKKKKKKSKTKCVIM
Procedure: The His-tagged KRAS G12D protein (Amgen) was diluted to 20 nM in Assay Buffer (20 mM HEPES, pH 7.4, 10 mM MgCl2, 50 mM NaCl, 0.1% BSA, 0.01% Tween-20, 10 μM GDP) and 2 μL was added to the appropriate wells of the 384-well plate. The plate was incubated for 30 minutes at room temperature. Biotinylated KRPep-2d substrate (Amgen) was diluted to 20 nM in Assay Buffer and 2 μL was added to all wells and incubated for 1 hour at room temperature. Detection Reagent (0.4 nM LANCE Eu-W1024 Anti-6×His (Perkin Elmer AD0401), 5 nM streptavidin-d2 (Cisbio 610SADLA)) was prepared in Assay Buffer, then 4 μL was added to the plate and incubated for 1 hour at room temperature.

[3] = TR-FRET, read-out: KRAS G12D Binding IC50

Row | SMILES | IC50 ([2]; TR-FRET binding) | also measured
1 | CN(C)CC1(COc2nc3c4cnc(c(F)c4n2)-c2c(c(Cl)cc4[nH]ncc24)CCOC(=O)O[C@H]2C[C@]4(CCCN3C4)C2)CC1 [Example 334, (1S,3R)-10-chloro-24-((1-((dimethylamino)methyl)cyclopropyl)methoxy)-32-fluoro-4,6-dioxa-13,14,19,23,25,27-hexaazaheptacyclo[25.3.1.1~1,3~.1~18,22~.0~9,17~.0~12,16~.0~21,26~]tritriaconta-9,11,14,16,18(32),19,21,23,25-nonaen-5-one] | 2 nM | IC50 ([1]; Homo sapiens, ASPC1, 2 h): 8 nM
2 | Cc1cc2[nH]ncc2c2c1CCCn1ncc(n1)C1CCCN(C1)c1nc(OC[C@@]34CCCN3C[C@H](F)C4)nc3c(F)c-2ncc13 (stereo partly drawn) [Example 158, 31-Fluoro-25-(((2R,7aS)-2-fluorotetrahydro-1H-pyrrolo[1,2-a]pyrrol-7a(5H)-yl)methoxy)-9-methyl-5,6,14,15,22,24,26,30,33-nonaazaheptacyclo[25.3.1.1˜14,17˜.1˜18,22˜.0˜2,10˜.0˜3,7˜.0˜23,28˜]tritriaconta-1(31),2,4,7,9,15,17(33),23,25,27,29-undecaene] | – | IC50 ([1]; Homo sapiens, ASPC1, 2 h): 278 nM
3 | O=C1OCCCc2c(Cl)cc3[nH]ncc3c2-c2ncc3c(nc(OC[C@@]45CCCN4C[C@H](F)C5)nc3c2F)N2CCCC[C@@](CF)(C2)O1 [Example 339, (26S)-18-chloro-32-fluoro-26-(fluoromethyl)-4-(((2R,7aS)-2-fluorotetrahyrdo-1H-pyrrolo[1,2-a]pyrrol-7a(5H)-yl)methoxy)-23,25-dioxa-1,3,5,9,14,15-hexaazahexacyclo[24.4.1.1~6,10~.0~2,7~.0~11,19~.0~12,16~]dotriaconta-2,4,6,8,10(32),11,13,16,18-nonaen-24-one] | – | IC50 [1]: 826 nM
4 | CC12COCCN(C1)c1nc(OC[C@@]34CCCN3C[C@H](F)C4)nc3c(F)c(ncc13)-c1c(c(Cl)cc3[nH]ncc13)CCCc1nc2no1 (mixture of isomers) [Example 379, (1RS)-10-chloro-33-fluoro-24-(((2R,7a.S)-2-fluorotetrahydro-1H-pyrrolo[1,2-α]pyrrol-7a(5H)-yl)methoxy)-1-methyl-4,30-dioxa-3,13,14,19,23,25,27,34-octaazaheptacyclo[25.4.1.1~2,5~.1~18,22~.0~9,17~.0~12,16~.0~21,26~]tetratriaconta-2,5(34),9,11,14,16,18(33),19,21,23,25-undecaene] | – | IC50 [2, 3]: 9 nM
5 | C[C@@]12COCCN(C1)c1nc(OC[C@H]3CC[C@@H]4COCCN43)nc3c(F)c(ncc13)-c1c(c(Cl)cc3[nH]ncc13)CCCOC(=O)O2 (single isomer, unassigned) [Example 308] | 6 nM | –
6 | Cc1cc2[nH]ncc2c2c1CCOC(=O)O[C@H]1C[C@]3(CCCN(C3)c3nc(OC[C@@H]4CCCN4C)nc4c(F)c-2ncc34)C1 (single isomer, unassigned) [Example 326] | 4 nM | –
7 | O[C@@H]1C[C@@H]2COCCCCc3c(Cl)cc4[nH]ncc4c3-c3ncc4c(nc(OC[C@@]56CCCN5C[C@H](F)C6)nc4c3F)N(C1)C2 (single isomer, unassigned) [Example 406] | – | IC50 [2, 3]: 21 nM
8 | C[C@@]12COCCN(C1)c1nc(OC[C@@H]3CC[C@H]4COCCN43)nc3c(F)c(ncc13)-c1c(c(Cl)cc3[nH]ncc13)CCCOC(=O)O2 (single isomer, unassigned) [Example 309] | 10 nM | –
9 | O=C1CCCCc2c(Cl)cc3[nH]ncc3c2-c2ncc3c(nc(OC[C@@]45CCCN4C[C@H](F)C5)nc3c2F)N2CC[C@@H]3CCN1[C@@H]3C2 (single isomer, unassigned) [Example 61] | 79 nM | –
10 | Cc1cc2[nH]ncc2c2c1CCOC(=O)O[C@H]1C[C@@]3(CCCN(C3)c3nc(OC[C@@H]4CCCN4C)nc4c(F)c-2ncc34)C1 (single isomer, unassigned) [Example 325] | 99 nM | –
11 | C[C@@]12COCCN(C1)c1nc(OC[C@@]34CCCN3C[C@H](F)C4)nc3c(F)c(ncc13)-c1c3c(cc4[nH]ncc14)CC[C@@H]3CCOC(=O)O2 (single isomer, unassigned) [Example 366] | 938 nM | –
12 | O=C1OCCCc2c(Cl)cc3[nH]ncc3c2-c2ncc3c(nc(OC[C@@]45CCCN4C[C@H](F)C5)nc3c2F)N2CC[C@H]3CCN1[C@H]3C2 (single isomer, unassigned) [Example 177] | 3 nM | –
13 | O=C1OCC[C@@H]2CCc3cc4[nH]ncc4c(c32)-c2ncc3c(nc(OC[C@@]45CCCN4C[C@H](F)C5)nc3c2F)N2CCOC[C@H](C2)O1 (single isomer, unassigned) [Example 367] | 4 nM | –
14 | C[C@@]12CCCN(C1)c1nc(OC[C@@]34CCCN3C[C@H](F)C4)nc3c(F)c(ncc13)-c1cc(O)cc3c1[C@@H](CCCC(=O)N2)CCC3 (single isomer, unassigned) [Example 27, 2,2,2-trifluoroacetate salt] | 7 nM | –
15 | Cc1cc2[nH]ncc2c2c1CCCOC(=O)O[C@@]1(C)COCCN(C1)c1nc(OC[C@@H]3CCCN3C)nc3c(F)c-2ncc13 (single isomer, unassigned) [Example 182] | 7570 nM | –
16 | Fc1c2ncc3c(nc(OC[C@@]45CCCN4C[C@H](F)C5)nc13)N1CCOC[C@@H](Cc3ncc(o3)CCc3c(Cl)cc4[nH]ncc4c3-2)C1 (single isomer, unassigned) [Example 376] | – | IC50 [2, 3]: 16 nM

Row | SMILES | IC50 ([2]; TR-FRET binding) | also measured
17 | CN(C)CC1(COc2nc3c4cnc(c(F)c4n2)-c2c(c(Cl)cc4[nH]ncc24)CCCOC(=O)O[C@]2(C)COCCN3C2)CC1 (single isomer, unassigned) [Example 331] | 5 nM | –
18 | Cc1cc2[nH]ncc2c2c1CCCCO[C@@H](C)[C@@H]1CN(CCO1)c1nc(OC[C@@]34CCCN3C[C@H](F)C4)nc3c(F)c-2ncc13 (single isomer, unassigned) [Example 244] | 27 nM | –
19 | Fc1c2ncc3c(nc(OC[C@@]45CCCN4C[C@H](F)C5)nc13)N1CCO[C@@H](C1)c1coc(n1)CCCc1c(Cl)cc3[nH]ncc3c1-2 (single isomer, unassigned) [Example 389] | – | IC50 [2, 3]: 3960 nM
20 | Fc1c2ncc3c(nc(OC[C@@]45CCCN4C[C@H](F)C5)nc13)N1CCO[C@@H](COCC[C@H]3C[C@H]3c3c(Cl)cc4[nH]ncc4c3-2)C1 (single isomer, unassigned) [Example 393] | – | IC50 [2, 3]: 1810 nM
21 | C[C@]12CCCCN(C1)c1nc(OC[C@@]34CCCN3C[C@H](F)C4)nc3c(F)c(ncc13)-c1c(c(Cl)cc3[nH]ncc13)CCCCC(=O)N2 (single isomer, unassigned) [Example 165] | 12700 nM | –
22 | O=C1CCCCc2c(Cl)cccc2-c2ncc3c(nc(OC[C@@]45CCCN4C[C@H](F)C5)nc3c2F)N2CC[C@@H]3CCN1[C@@H]3C2 (single isomer, unassigned) [Example 163] | 2840 nM | –
23 | O=C1OCCCc2c(Cl)cc3[nH]ncc3c2-c2ncc3c(nc(OC[C@@]45CCCN4C[C@H](F)C5)nc3c2F)N2CCCC[C@](CF)(C2)O1 (single isomer, unassigned) [Example 340] | 4 nM | –
24 | C[C@@]12CCCN(C1)c1nc(OC[C@@]34CCCN3C[C@H](F)C4)nc3c(F)c(ncc13)-c1cc(O)cc3c1[C@H](CCCC(=O)N2)CCC3 (single isomer, unassigned) [Example 28, 2,2,2-trifluoroacetate salt] | 68 nM | –
25 | O=C1N[C@H]2C[C@@H](O)CN(C2)c2nc(OC[C@@]34CCCN3C[C@H](F)C4)nc3c(F)c(ncc23)-c2c(c(Cl)cc3[nH]ncc23)CCCO1 (single isomer, unassigned) [Example 285] | 1910 nM | –
26 | O=C1CCCCc2c(Cl)cc3[nH]ncc3c2-c2ncc3c(nc(OC[C@@]45CCCN4C[C@H](F)C5)nc3c2F)N2CC[C@H]3CCN1[C@H]3C2 (single isomer, unassigned) [Example 62] | 3 nM | –
27 | CN1C(=O)OCCCc2c(Cl)cc3[nH]ncc3c2-c2ncc3c(nc(OC[C@@]45CCCN4C[C@H](F)C5)nc3c2F)N2C[C@@H](O)C[C@@H]1C2 (single isomer, unassigned) [Example 286] | 81 nM | –
28 | [2H]C([2H])([2H])[C@]12COCCN(C1)c1nc(OC[C@@]34CCCN3C[C@H](F)C4)nc3c(F)c(ncc13)-c1c(c(Cl)cc3[nH]ncc13)CCCOC(=O)O2 (single isomer, unassigned) [Example 354] | 1590 nM | –
29 | Fc1c2ncc3c(nc(OC[C@@]45CCCN4C[C@H](F)C5)nc13)N1CCO[C@H](C1)c1coc(n1)CCCc1c(Cl)cc3[nH]ncc3c1-2 (single isomer, unassigned) [Example 390] | – | IC50 [2, 3]: 5 nM
30 | O=C1OCCCc2c(Cl)cc3[nH]ncc3c2-c2ncc3c(nc(OC[C@@]45CCCN4C[C@H](F)C5)nc3c2F)N2CCOC[C@@](CF)(C2)O1 (single isomer, unassigned) [Example 310] | 2260 nM | –
31 | C[C@@]12CCCCN(C1)c1nc(OC[C@@]34CCCN3C[C@H](F)C4)nc3c(F)c(ncc13)-c1c(c(Cl)cc3[nH]ncc13)CCCCC(=O)N2 (single isomer, unassigned) [Example 166] | 5 nM | –
32 | [2H]C([2H])([2H])[C@@]12COCCN(C1)c1nc(OC[C@@]34CCCN3C[C@H](F)C4)nc3c(F)c(ncc13)-c1c(c(C)cc3[nH]ncc13)CCCOC(=O)O2 (single isomer, unassigned) [Example 352] | 6 nM | –
